# Earlier results in patent US11439638B1, “Drug and diagnostic combination system to identify and treat single-stranded RNA viruses including coronaviruses” (priority 2021, dated 2022).
# Tests used:
# [1] = tested on: influenza viruses, arenaviruses, bunyaviruses, and filoviruses
# SARS-CoV-2 = settings: mammalian cells, in vitro
Compound,effectiveness against viruses [1],inhibition of dengue virus (dengue virus),inhibition of yellow fever virus (yellow fever virus),replication of SARS-CoV-2 (SARS-CoV-2)
"NC(=O)c1nc(F)c[nH]c1=O [Favipiravir, favipiravir]",effective,,,
NC(=O)c1nc(F)cn([C@@H]2O[C@H](COP(=O)(O)OP(=O)(O)OP(=O)(O)O)[C@@H](O)[C@H]2O)c1=O [favipiravir-RTP],effective,,,
ivermectin,,inhibit,inhibit,slow replication
